The subject of one data set is insects. Description: Insecticidal activity (general statement). The note with it: statement in words.
For data set [1], the system named is Mexican bean beetle (MBB) larvae. Kind of data set: Spray test, Mexican bean beetle (MBB) larvae on bean leaves. It is filed as in vivo. The conditions noted are these: approx. 48 h after spraying. The procedure: (§1) Three 5 oz paper cups containing Henderson dwarf lima bean plants and one 5 oz paper cup containing Orange Gem nasturtiums, all growing in vermiculite, are placed on a turntable and sprayed to thorough wetness with 25 ml of a solution of the candidate chemical at the appropriate concentration. Nasturtiums were already infested with 50-100 bean aphids (BA). A bean plant in one paper cup was already infested with 50-100 two-spotted mites (TSM). Leaves from the two remaining bean plants are removed following spraying and placed in disposable petri dishes with 5 southern armyworm (SA) larvae in one petri dish, and 5 Mexican bean beetle (MBB) larvae in the other petri dish. The rating is done approximately 48 hours after spraying as follows:
(§2) So as to obtain more meaningful results, all tests are performed at the same time of day, whenever possible, usually in the forenoon. Temperature,illumination and humidity are the same in all tests. Atmospheric pressure is not controlled.
(§3) Results obtained with the novel insecticides of this invention at various concentrations of active chemical are tabulated below. The ratings given are for averages of three or more replicates. The oral lethal dose for 50 percent kill of laboratory rats is also recorded in the table. In conducting the toxicity tests on rats, 0.01 g of active chemical per ml in corn oil is employed as an additive to the diet of the animals.

In data set [2] the test system is southern armyworm (SA) larvae. Kind of data set: Spray test, southern armyworm (SA) larvae on bean leaves. It is filed as in vivo. The note with it: 500 ppm; approx. 48 h after spraying. Here is the method:
as §1, §2, §3

Another data set relates to bean aphids (BA). Kind of data set: Spray test, bean aphids (BA) on nasturtiums. It is filed as in vivo. The conditions noted are these: approx. 48 h after spraying. The procedure: as §1, §2, §3
The test system of a further data set is two-spotted mites (TSM). Description: Spray test, two-spotted mites (TSM) on bean plants. It is filed as in vivo. The note with it: 500 ppm; approx. 48 h after spraying. Here is the method:
as §1, §2, §3

For data set [3], the system named is Southern Corn Rootworm (SCR). Kind of data set: Southern Corn Rootworm (SCR) soil treatment test, root feeding damage on corn. It is filed as in vivo. Further details: scale not given here. The note with it: 25 ppm; nine days after treatment. Here is the method: Three 5 oz paper cups planted each with one kernel of DeKalb XL-361 corn are treated two days after planting with 10 ml of a 125 ppm solution of the candidate compound. Compounds with high efficacy are treated at lower concentrations. The experiment is a 4×5 factorial in a randomized complete block design with three replications. The tests are evaluated nine days after treatment. The roots are inspected under a dissecting microscope and rated as follows:
as §2, §3

Data set [4] in a line: Oral toxicity test on laboratory rats. The note with it: rat, in vivo, in corn oil as additive to the diet, read-out: LD50 (oral lethal dose for 50 percent kill of laboratory rats). The procedure:
as §3

On to `C#CCSc1nc(C2CCCCC2)nn1C(=O)N(C)C` [1-N,N-dimethylcarbamyl-3-cyclohexyl-5-propargylthio-1,2,4-triazole], for which the insecticidal activity entry with insects was “virtually useless as insecticides”.

For `C=CCSc1nc(C(C)(C)C)nn1C(=O)N(C)C` [R=2-propenyl (allyl), R'=tert.butyl, 1-Dimethylcarbamyl-3-tert.butyl-5-allylthio-1H-1,2,4-triazole], the “MBB rating (larvae dead)” value in data set [1] (15 ppm) was 0 (no larvae dead); in data set [1] (31 ppm), 0 (no larvae dead); in data set [1] (62 ppm), 1 (1 -25% larvae dead); in data set [1] (125 ppm) it was 5 (100% larvae dead); in data set [1] (250 ppm), 5 (100% larvae dead); in data set [1] (500 ppm) it was 5 (100% larvae dead). Moreover, in data set [2], the “SA rating (larvae dead)” value is 1 (1-25% larvae dead). Also, the “BA rating (dead)” value was 2 (26-50% dead) in the data set on bean aphids (BA) (2 ppm); 3 (51-75% dead) in the data set on bean aphids (BA) (4 ppm); 4 (76-99% dead) in the data set on bean aphids (BA) (8 ppm); 5 (100% dead) in the data set on bean aphids (BA) (15 ppm); 5 (100% dead) in the data set with bean aphids (BA) (31 ppm); 5 (100% dead) in the data set on bean aphids (BA) (62 ppm). The “BA rating (dead)” value with bean aphids (BA) (125 ppm), in the data set with bean aphids (BA) (250 ppm) and in the data set on bean aphids (BA) (500 ppm) was 5 (100% dead) throughout. In the data set with two-spotted mites (TSM), the “TSM rating (dead adults)” value was 0 (no dead adults). The “SCR Rating (root feeding damage)” value in data set [3] is given as 2.5. In data set [4], the LD50 was 17 mg/kg.

Values taken from patent US4160839A, “Carbamyltriazole insecticides” (priority 1976, dated 1979).
